For data set [1] the following is noted: human, in vivo.
The conditions of data set [2]: buprenorphine, individual patient.
The conditions of data set [3]: human, in vivo. The source holds these as a separate data set.

Several values for one entry are separate records, joined by “and”; a condition that tells them apart may be missing. Equal entries are not always repeated. Where two headings read alike, the source gives them in different places. Marks after values point to notes of the source that are not given here.

On to `CO[C@@]12CC[C@@]3(C[C@@H]1[C@](C)(O)C(C)(C)C)[C@H]1Cc4ccc(O)c5c4[C@@]3(CCN1CC1CC1)[C@H]2O5` [buprenorphine], for which, in data set [1], the “Cave from Day 21 to removal, higher in higher dose group as compared with lower dose group” value is 93%; the “Cmax, average, higher in higher dose group as compared with lower dose group” value was determined as 62%; the “reduction in buprenorphine concentrations from Day 17 to removal” value is listed as no more than 50%; the “shortest half-life during the plateau phase” value was 25 weeks. The “time to reach plateau phase of buprenorphine concentrations” value in data set [1] is recorded as no more than 21 days. In data set [2] (2 implants), the “Model predicted concentration at removal” value was 263 pg/ml and 342 pg/ml (2×) and 252 pg/ml and 447 pg/ml and 338 pg/ml; the “Time from implant to reaching 2x last concentration” value is on record as 180 h; the “α-Half Life” value was 115^b hours; the “β-Half Life” value was 3578^bc hours. Moreover, the γ-Half life in data set [2] (2 implants) is 120 weeks. Moreover, in data set [2] (4 implants), the “Model predicted concentration at removal” value was 6.69 pg/mL and 5.33 pg/mL and 5.76 pg/mL and 5.01 pg/mL and 7.78 pg/mL; the “Time from implant to reaching 2x last concentration” value was 690 h and 710 h; the “β-Half Life” value was 12.0 h and 16.0 h and 24.0 h. Further, the Renal clearance in data set [3] turned out to be 0.0552 mL/min.

The record behind these values is US20140271766A1 (priority 2013, published 2014).
